Data taken from patent US20120121535A1, “AGENT FOR PREVENTING RECURRENCE OF LEUKEMIA” (RIKEN, priority 2009, published 2012).

What was measured:
hCD34+CD38− LSCs = experiment: Flow cytometric cell cycle analysis of LSCs in BM of recipients of primary transplantation of human AML; type: in vivo, NOD/SCID/IL2rg^null mice transplanted with human AML
Excerpt: (§1) Newborn (within 2 days of birth) NOD/SCID/IL2rg^null recipient received 150 cGy of total body irradiation using a ^137Cs-source irradiator, followed by intravenous injection of AML cells within two hours. For primary transplantation, 10^3 to 5×10^4 sorted BM cells per recipient from a 7AAD^− lineage (hCD3/hCD4/hCD8) ^−hCD34^+hCD38^− AML patient were used, as described in F. Ishikawa et al., Nat. Biotechnol. 25, 1315 (2007). For secondary transplantation after administration of Ara-C (cytarabine) alone or after administration of G-CSF followed by administration of Ara-C, 2×10^2, 2×10^3, 2×10^4, or 2×10^5 sorted 7AAD^−hCD45^+hCD34^+ BM cells per recipient were used. For fluorescence-activated cell sorting, BMMNC cells from AML patients were labeled with fluorescent dye-conjugated mouse anti-hCD3, anti-hCD4, anti-hCD8, anti-hCD34 and anti-hCD38 monoclonal antibodies (BD Immunocytometry), and BMMNC cells from recipients were labeled with mouse anti-hCD45, anti-hCD34 and anti-hCD38 monoclonal antibodies (BD Immunocytometry); the cells were sorted using FACSAria (Beckton Dickinson, Calif.). Doublets were eliminated via analysis of FSC/SSC-height and FSC/SSC-width. After the sorting, the purities of hCD34^+hCD38^− cells and hCD34^+ cells exceeded 98%.
For experiments involving administration of G-CSF alone, administration of Ara-C alone, and administration of G-CSF followed by administration of Ara-C, recipients of primary transplantation of human AML were used 16 to 24 weeks after transplantation. […]
For evaluation of human AML transplantation, blood was drawn from the orbital sinus of each recipient every 3 weeks starting at week 6 after transplantation. Myelocytes were recovered from two tibiae and one femur from each analyzed recipient; MNCs (mononucleocytes) were counted manually and using an automated blood cell analyzer (Celltac α, Nihon Kohden, Japan), and the absolute number of BMMNCs derived from each recipient was estimated. The absolute number of human CD34^+ cells (derived from two tibiae and one femur) per mouse was determined by multiplying the thus-obtained total BMMNC count by 7AAD^−hCD45^+hCD34^+ BM cells (%). BrdU uptake was measured using a BrdU flow kit (BD Pharmingen, Calif.). To quantify cells in the G0 phase of the cell cycle, the cells were stained with Hoechst 33342 and Pyronin Y, and then surface-stained using standard procedures. Quantitation of cells undergoing apoptosis was performed by staining activated caspase-3 in the cells using a rabbit anti-activated caspase-3 monoclonal antibody (BD Pharmingen, Calif.). […]

[1] = system: CD34+CD38− LSCs and CD34+CD38+ AML non-stem cells; experiment: Activated caspase-3 flow cytometry of BM cells undergoing apoptosis; design: species or system NOD/SCID/IL2rg^null mice transplanted with human AML; conditions: in vivo administration, recipient BM
Method: Myelocytes were recovered from two tibiae and one femur from each analyzed recipient; MNCs (mononucleocytes) were counted manually and using an automated blood cell analyzer (Celltac α, Nihon Kohden, Japan), and the absolute number of BMMNCs derived from each recipient was estimated. The absolute number of human CD34^+ cells (derived from two tibiae and one femur) per mouse was determined by multiplying the thus-obtained total BMMNC count by 7AAD^−hCD45^+hCD34^+ BM cells (%). BrdU uptake was measured using a BrdU flow kit (BD Pharmingen, Calif.). To quantify cells in the G0 phase of the cell cycle, the cells were stained with Hoechst 33342 and Pyronin Y, and then surface-stained using standard procedures. […]

[2] = system: AML cells in the endosteum; experiment: HE and TUNEL staining of bone sections; type: in vivo, NOD/SCID/IL2rg^null mice transplanted with human AML; conditions: bone sections of recipients
Excerpt: For experiments involving administration of G-CSF alone, administration of Ara-C alone, and administration of G-CSF followed by administration of Ara-C, recipients of primary transplantation of human AML were used 16 to 24 weeks after transplantation. For each experiment for comparison of various dose groups, a pair of recipients was selected from among litter mates, with the same primary AML sample transplanted in the same amount on the same day so as to suppress variation among the litter mates and variation due to differences in transplantation level. […]
After administration of Ara-C alone or after administration of Ara-C following pre-administration of G-CSF, the BM of the recipients was evaluated in terms of 1) a flow cytometry fraction of activated caspase-3 positive LSCs undergoing apoptosis, 2) histological localization of cells undergoing apoptosis in the recipient BM as determined by TUNEL staining, 3) percentage and absolute number of remaining viable hCD34^+ AML cells, and 4) frequency and AML-causing potential of remaining LSCs in alternative measurements of the likelihood of AML recurrence via limited dilution and sequential transplantation of sorted hCD34^+ cells. […]

LSCs = experiment: Limited dilution secondary transplantation of sorted hCD34+ BM cells (LSC frequency, survival of secondary recipients); type: in vivo, NOD/SCID/IL2rg^null mice transplanted with human AML; conditions: secondary recipients of hCD34+ cells from treated mice
Excerpt: as §1, with “After the sorting, the purities of hCD34^+hCD38^− cells and hCD34^+ cells exceeded 98%.” left out
Differences in the ratios/absolute numbers of cells (%), activated caspase-negative cells (%), and BM CD34^+ cells in the cell cycle were analyzed using two-tailed t-test (GraphPad Prism, GraphPad, San Diego, Calif.). […]

[3] = system: hCD34+ cells, including LSCs; experiment: Percentage and absolute number of remaining viable hCD45+CD34+ cells in recipient BM; type: in vivo, NOD/SCID/IL2rg^null mice transplanted with human AML; conditions: mean +/− SEM; for #CD45+CD34+/mouse (×10^6): two tibiae and one femur; for % CD45+CD34+: viable cells in BM
Excerpt: (§2) For experiments involving administration of G-CSF alone, administration of Ara-C alone, and administration of G-CSF followed by administration of Ara-C, recipients of primary transplantation of human AML were used 16 to 24 weeks after transplantation. For each experiment for comparison of various dose groups, a pair of recipients was selected from among litter mates, with the same primary AML sample transplanted in the same amount on the same day so as to suppress variation among the litter mates and variation due to differences in transplantation level. Performed were administration of recombinant human G-CSF (Wako, Japan): 300 μg/kg s.c. qd×5 days; administration of Ara-C (Biogenesis, Poole, UK): 1 g/kg i.p. qd×2 days; administration of G-CSF+Ara-C: G-CSF 300 μg/kg s.c. qd×5 days, and concurrent administration of Ara-C 1 g/kg i.p. qd×2 days on days 4 and 5 of administration. The recipients were killed 16 hours after final injection. BrdU (1.5 mg/mouse; BD Biosciences, Calif.) was injected by i.p. to recipients under a cell cycle analysis by BrdU uptake immediately after the final injection (s.c. stands for subcutaneous administration, and i.p. for intraperitoneal administration).
For evaluation of human AML transplantation, blood was drawn from the orbital sinus of each recipient every 3 weeks starting at week 6 after transplantation. Myelocytes were recovered from two tibiae and one femur from each analyzed recipient; MNCs (mononucleocytes) were counted manually and using an automated blood cell analyzer (Celltac α, Nihon Kohden, Japan), and the absolute number of BMMNCs derived from each recipient was estimated. The absolute number of human CD34^+ cells (derived from two tibiae and one femur) per mouse was determined by multiplying the thus-obtained total BMMNC count by 7AAD^−hCD45^+hCD34^+ BM cells (%). BrdU uptake was measured using a BrdU flow kit (BD Pharmingen, Calif.). To quantify cells in the G0 phase of the cell cycle, the cells were stained with Hoechst 33342 and Pyronin Y, and then surface-stained using standard procedures. Quantitation of cells undergoing apoptosis was performed by staining activated caspase-3 in the cells using a rabbit anti-activated caspase-3 monoclonal antibody (BD Pharmingen, Calif.). Surface labeling was achieved using mouse anti-human CD45, anti-CD34 and anti-CD38 monoclonal antibodies (BD Immunocytometry). Analyses were performed using FACSAria and FACSCanto II (Becton Dickinson, Calif.).
To evaluate the frequency and function of LSCs remaining after each dosing, limited dilution and secondary transplantation of living hCD34^+ BM cells, including leukemia stem cells sorted from recipients given administration of Ara-C alone or G-CSF+Ara-C, were performed. The absolute number of hCD34^+ cells was obtained from the number of mononucleocytes in two tibiae and one femur derived from each recipient, and viable hCD34^+ cell (%) was obtained by flow cytometry.
The results are shown as mean value +/− SEM; differences were examined by two-tailed t-test.

[4] = system: AML cells in the endosteal region; experiment: Histological analysis of bone sections (BrdU uptake, Ki67 immunofluorescence) of recipients of human AML; type: in vivo, NOD/SCID/IL2rg^null mice transplanted with human AML
Excerpt: as §2
Paraformaldehyde-fixed, decalcified, paraffin-embedded sections were prepared from femurs of the recipients primarily transplanted with AML. […]

[5] = post-Ara-C, intraperitoneal, n=15
[6] = after administration of G-CSF in vivo, all cases examined

Nc1ccn([C@@H]2O[C@H](CO)[C@@H](O)[C@@H]2O)c(=O)n1 [Ara-C, cytarabine]
% G0/G1 of CD34+CD38− AML cells (hCD34+CD38− LSCs; [5]): 91.7+/−2.3%
% S of CD34+CD38− AML cells (hCD34+CD38− LSCs; [5]): 0.1+/−0.1%
Apoptosis of CD34+CD38+ AML non-stem cells (activated caspase-3) [1]: underwent apoptosis
Apoptosis of CD34+CD38− LSCs (activated caspase-3) [1]: the majority of CD34^+CD38^− LSCs did not
Cell death in the endosteum (TUNEL and HE staining) [2]: TUNEL-negative AML cells remaining in the endosteum
Secondary mouse recipients surviving beyond 19 weeks after transplantation (LSCs): None
#CD45+CD34+/mouse (×10^6) ([3]; Case ID 1): 1.4 +/− 0.3 ×10^6
% CD45+CD34+ ([3]; Case ID 1): 29.7 +/− 1.6%
#CD45+CD34+/mouse (×10^6) ([3]; Case ID 2): 4.9 +/− 0.7 ×10^6
% CD45+CD34+ ([3]; Case ID 2): 84.9 +/− 2.5%
#CD45+CD34+/mouse (×10^6) ([3]; Case ID 3): 2.3 +/− 0.1 ×10^6
% CD45+CD34+ ([3]; Case ID 3): 80.2 +/− 2.3%
#CD45+CD34+/mouse (×10^6) ([3]; Case ID 4): 3.6 +/− 0.8 ×10^6
% CD45+CD34+ ([3]; Case ID 4): 68.0 +/− 2.8%
#CD45+CD34+/mouse (×10^6) ([3]; Case ID 5): 2.1 +/− 0.2 ×10^6
% CD45+CD34+ ([3]; Case ID 5): 61.5 +/− 7.5%
#CD45+CD34+/mouse (×10^6) ([3]; Case ID 6): 5.3 +/− 1.4 ×10^6
% CD45+CD34+ ([3]; Case ID 6): 49.0 +/− 9.2%
#CD45+CD34+/mouse (×10^6) ([3]; Case ID 7): 0.7 +/− 0.1 ×10^6
% CD45+CD34+ ([3]; Case ID 7): 16.5 +/− 1.7%

B1: G-CSF: recombinant human G-CSF (Wako, Japan), granulocyte colony stimulation factor (protein)
chain: TPLGPASSLPQSFLLKCLEQVRKIQGDGAALQEKLVSECATYKLCHPEELVLLGHSLGIPWAPLSSCPSQALQLAGCLSQLHSGLFLYQGLLQALEGISPELGPTLDTLQLDVADFATTIWQQMEELGMAPALQPTQGAMPAFASAFQRRAGGVLVASHLQSFLEVSYRVLRHLAQP
LSCs in the G0 phase fraction (hCD34+CD38− LSCs; [6]): decreased significantly
LSCs in the S phase and G2/M phase (hCD34+CD38− LSCs; [6]): increased
Expression of Ki67 in AML cells in BM center and endosteal region ([4]; after 5 days of administration of G-CSF): expression of Ki67 was induced
BrdU uptake of AML cells in the endosteal region ([4]; after administration of G-CSF): increase in BrdU uptake
